In ChEMBL document CHEMBL1201862, “PubChem BioAssay data set” (2004):
Blank lines part the entries; values can stand above or below the compound they belong to. Activity calls are given as the source filed them.

Legend:
Cytochrome P450 2D6 = Cytochrome P450 2D6 (Homo sapiens, UniProt P10635); assay: qHTS Assay for Inhibitors and Substrates of Cytochrome P450 2D6. [Related pubchem assays: 410 ]; assay type: ADME; conditions: read-out: Potency
[1] = biological target: Luciferin 4-monooxygenase (Photinus pyralis, UniProt P08659); assay: Counter Screen for Luciferase-based Assay Positives. [Related pubchem assays: 620, 618, 411 ]
Chain of Luciferin 4-monooxygenase (P08659 whole entry): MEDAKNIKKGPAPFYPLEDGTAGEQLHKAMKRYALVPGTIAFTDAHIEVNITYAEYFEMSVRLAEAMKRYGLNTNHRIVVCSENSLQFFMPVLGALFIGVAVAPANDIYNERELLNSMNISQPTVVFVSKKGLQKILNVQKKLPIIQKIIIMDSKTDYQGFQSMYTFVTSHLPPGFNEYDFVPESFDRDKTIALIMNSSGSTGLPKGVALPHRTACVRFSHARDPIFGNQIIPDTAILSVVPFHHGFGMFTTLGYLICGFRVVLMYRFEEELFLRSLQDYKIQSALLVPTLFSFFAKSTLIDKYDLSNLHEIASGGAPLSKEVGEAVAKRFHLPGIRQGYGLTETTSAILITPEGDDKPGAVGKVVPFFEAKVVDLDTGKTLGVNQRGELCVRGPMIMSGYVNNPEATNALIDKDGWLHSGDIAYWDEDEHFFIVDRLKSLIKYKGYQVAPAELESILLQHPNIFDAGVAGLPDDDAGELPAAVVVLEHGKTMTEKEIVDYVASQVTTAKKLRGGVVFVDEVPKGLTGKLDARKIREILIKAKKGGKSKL

HT-1080 = assay: cytotoxicity in HT1080 fibrosarcoma cells, cell-based, fluorescence readout (AID 620); assay type: functional; conditions: Homo sapiens
Estrogen receptor = biological target: T1, Estrogen receptor (Homo sapiens, UniProt P03372);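 further: potency for inhibiting coactivator peptide recruitment to the receptor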
T1 sequence (P03372 whole entry): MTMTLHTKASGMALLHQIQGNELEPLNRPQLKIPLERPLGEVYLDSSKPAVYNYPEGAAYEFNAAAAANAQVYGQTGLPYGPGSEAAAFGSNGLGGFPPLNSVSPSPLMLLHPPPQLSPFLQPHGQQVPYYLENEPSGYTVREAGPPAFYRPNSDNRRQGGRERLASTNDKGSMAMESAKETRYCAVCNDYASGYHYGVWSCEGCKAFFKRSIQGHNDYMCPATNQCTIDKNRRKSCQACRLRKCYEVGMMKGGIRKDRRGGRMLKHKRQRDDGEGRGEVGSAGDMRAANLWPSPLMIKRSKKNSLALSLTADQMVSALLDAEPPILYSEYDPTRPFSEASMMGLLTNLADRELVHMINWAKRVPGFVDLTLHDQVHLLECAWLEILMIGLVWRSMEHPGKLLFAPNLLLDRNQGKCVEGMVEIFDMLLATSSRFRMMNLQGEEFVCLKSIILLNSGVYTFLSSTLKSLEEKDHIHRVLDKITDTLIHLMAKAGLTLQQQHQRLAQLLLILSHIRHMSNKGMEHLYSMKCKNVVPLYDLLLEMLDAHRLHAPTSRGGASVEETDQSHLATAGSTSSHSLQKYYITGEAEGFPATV

Procathepsin L = Procathepsin L (Homo sapiens, UniProt P07711); assay: cathepsin L inhibitors, dose response, counter-screen for M1/M17 aminopeptidase inhibitor project, biochemical, QFRET, 1536-well (AID 2214)
Chain of Procathepsin L (P07711 whole entry): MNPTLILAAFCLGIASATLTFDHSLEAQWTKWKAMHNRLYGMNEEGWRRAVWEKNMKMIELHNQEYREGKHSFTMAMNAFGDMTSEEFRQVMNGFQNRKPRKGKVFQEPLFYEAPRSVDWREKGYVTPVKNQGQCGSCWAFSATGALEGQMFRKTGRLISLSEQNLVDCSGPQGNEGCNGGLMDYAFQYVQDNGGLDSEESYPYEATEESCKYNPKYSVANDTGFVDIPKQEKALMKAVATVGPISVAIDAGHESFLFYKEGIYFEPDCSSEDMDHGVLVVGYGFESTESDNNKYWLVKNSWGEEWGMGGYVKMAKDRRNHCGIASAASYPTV

Aspartyl aminopeptidase = biological target: T2, Aspartyl aminopeptidase (Plasmodium falciparum 3D7, UniProt Q8I2J3); assay: Counterscreen for inhibitors of M1 and M17 aminopeptidases: QFRET-based biochemical high throughput dose response assay for inhibitors of the Plasmodium falciparum M18 Aspartyl Aminopeptidase (PFM18AAP). [Related PubChem assays: 1619 (Screening assay (M17LAP inhibitors).), 1445 (Screening assay (M1AAP inhibitors).)]
T2 sequence (Q8I2J3 whole entry): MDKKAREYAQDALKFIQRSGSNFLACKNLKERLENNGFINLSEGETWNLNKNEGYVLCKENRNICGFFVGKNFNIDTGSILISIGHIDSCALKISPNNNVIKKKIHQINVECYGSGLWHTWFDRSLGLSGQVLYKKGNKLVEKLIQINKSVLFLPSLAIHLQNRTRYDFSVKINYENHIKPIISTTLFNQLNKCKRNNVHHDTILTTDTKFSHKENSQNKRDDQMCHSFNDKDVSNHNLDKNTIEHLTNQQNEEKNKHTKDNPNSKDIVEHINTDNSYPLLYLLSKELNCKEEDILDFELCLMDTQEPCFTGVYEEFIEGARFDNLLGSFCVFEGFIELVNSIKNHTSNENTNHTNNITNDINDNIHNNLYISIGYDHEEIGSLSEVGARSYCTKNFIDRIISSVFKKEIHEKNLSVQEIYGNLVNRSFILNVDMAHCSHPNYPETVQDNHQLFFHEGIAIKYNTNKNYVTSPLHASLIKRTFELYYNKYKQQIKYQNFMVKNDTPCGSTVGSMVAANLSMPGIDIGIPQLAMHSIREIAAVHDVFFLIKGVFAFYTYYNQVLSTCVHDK

Leucine aminopeptidase = biological target: T3, Leucine aminopeptidase (Plasmodium falciparum 3D7, UniProt Q8IL11); assay: P. falciparum M17LAP inhibitors, primary screen, biochemical, fluorogenic H-Leu-NHMec substrate, 1536-well (AID 1619); assay type: functional
T3 sequence (Q8IL11 whole entry): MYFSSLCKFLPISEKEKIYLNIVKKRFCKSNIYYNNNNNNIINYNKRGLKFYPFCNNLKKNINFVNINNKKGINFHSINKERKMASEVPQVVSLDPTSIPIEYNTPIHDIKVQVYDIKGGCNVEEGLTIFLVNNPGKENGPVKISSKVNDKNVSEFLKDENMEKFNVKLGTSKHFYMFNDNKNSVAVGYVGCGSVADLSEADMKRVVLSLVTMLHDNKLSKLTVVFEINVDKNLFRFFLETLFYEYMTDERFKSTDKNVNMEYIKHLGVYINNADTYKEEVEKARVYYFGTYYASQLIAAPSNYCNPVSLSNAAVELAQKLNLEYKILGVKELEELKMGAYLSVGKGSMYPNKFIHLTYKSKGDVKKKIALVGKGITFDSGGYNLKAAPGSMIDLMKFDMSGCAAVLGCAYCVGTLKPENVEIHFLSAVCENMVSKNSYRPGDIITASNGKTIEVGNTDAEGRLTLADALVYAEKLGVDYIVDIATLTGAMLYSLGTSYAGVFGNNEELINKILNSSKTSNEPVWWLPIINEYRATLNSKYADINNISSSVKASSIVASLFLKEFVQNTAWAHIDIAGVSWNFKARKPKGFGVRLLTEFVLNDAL

[2] = biological target: DNA dC->dU-editing enzyme APOBEC-3G (Homo sapiens, UniProt Q9HC16); assay: Dose Response confirmation of small molecule APOBEC3G DNA Deaminase Inhibitors via a fluorescence-based single-stranded DNA deaminase assay. [Related pubchem assays (depositor defined):AID493012, AID493028]; assay type: functional
Chain of DNA dC->dU-editing enzyme APOBEC-3G (Q9HC16 whole entry): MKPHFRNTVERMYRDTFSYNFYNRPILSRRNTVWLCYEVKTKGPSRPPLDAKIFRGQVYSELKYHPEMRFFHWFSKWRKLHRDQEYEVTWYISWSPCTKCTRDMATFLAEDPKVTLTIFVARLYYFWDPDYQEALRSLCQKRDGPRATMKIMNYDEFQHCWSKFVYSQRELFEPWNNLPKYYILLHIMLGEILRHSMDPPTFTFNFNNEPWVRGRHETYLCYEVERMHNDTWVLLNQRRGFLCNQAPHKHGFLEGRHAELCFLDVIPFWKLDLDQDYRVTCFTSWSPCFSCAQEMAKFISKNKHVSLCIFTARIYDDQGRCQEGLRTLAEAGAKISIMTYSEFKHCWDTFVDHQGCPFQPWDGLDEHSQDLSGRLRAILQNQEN

[3] = biological target: Neurotensin receptor type 1 (Homo sapiens, UniProt P30989); assay type: functional;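 further: Image-based confirmatory dose-response assay measuring agonist activity at NTR1; NTR1-expressing U2OS osteosarcoma cells imaged for beta-arrestin GFP spot formation; agonist potency where compounds increase beta-arrestin recruitment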
Chain of Neurotensin receptor type 1 (P30989 whole entry): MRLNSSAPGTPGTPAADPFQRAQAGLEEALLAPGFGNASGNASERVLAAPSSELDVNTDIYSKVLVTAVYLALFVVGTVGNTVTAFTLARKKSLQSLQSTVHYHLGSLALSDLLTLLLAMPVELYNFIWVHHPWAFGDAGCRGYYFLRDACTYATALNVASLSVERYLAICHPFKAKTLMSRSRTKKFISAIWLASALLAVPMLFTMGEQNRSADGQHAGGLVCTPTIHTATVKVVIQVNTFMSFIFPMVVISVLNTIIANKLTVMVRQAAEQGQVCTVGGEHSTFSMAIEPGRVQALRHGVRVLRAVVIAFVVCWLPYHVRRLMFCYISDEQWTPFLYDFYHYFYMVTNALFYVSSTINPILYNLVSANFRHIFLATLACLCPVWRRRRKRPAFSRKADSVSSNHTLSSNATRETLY

[4] = biological target: T4, Short transient receptor potential channel 4 (Mus musculus, UniProt Q9QUQ5); assay: mouse TRPC4 channel inhibitors, dose response, cell-based, HEK293 TRPC4/mu-opioid, Fluo-4 calcium (AID 434942); assay type: functional;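 further: potency of inhibitors blocking the TRPC4 calcium response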
T4 sequence (Q9QUQ5 whole entry): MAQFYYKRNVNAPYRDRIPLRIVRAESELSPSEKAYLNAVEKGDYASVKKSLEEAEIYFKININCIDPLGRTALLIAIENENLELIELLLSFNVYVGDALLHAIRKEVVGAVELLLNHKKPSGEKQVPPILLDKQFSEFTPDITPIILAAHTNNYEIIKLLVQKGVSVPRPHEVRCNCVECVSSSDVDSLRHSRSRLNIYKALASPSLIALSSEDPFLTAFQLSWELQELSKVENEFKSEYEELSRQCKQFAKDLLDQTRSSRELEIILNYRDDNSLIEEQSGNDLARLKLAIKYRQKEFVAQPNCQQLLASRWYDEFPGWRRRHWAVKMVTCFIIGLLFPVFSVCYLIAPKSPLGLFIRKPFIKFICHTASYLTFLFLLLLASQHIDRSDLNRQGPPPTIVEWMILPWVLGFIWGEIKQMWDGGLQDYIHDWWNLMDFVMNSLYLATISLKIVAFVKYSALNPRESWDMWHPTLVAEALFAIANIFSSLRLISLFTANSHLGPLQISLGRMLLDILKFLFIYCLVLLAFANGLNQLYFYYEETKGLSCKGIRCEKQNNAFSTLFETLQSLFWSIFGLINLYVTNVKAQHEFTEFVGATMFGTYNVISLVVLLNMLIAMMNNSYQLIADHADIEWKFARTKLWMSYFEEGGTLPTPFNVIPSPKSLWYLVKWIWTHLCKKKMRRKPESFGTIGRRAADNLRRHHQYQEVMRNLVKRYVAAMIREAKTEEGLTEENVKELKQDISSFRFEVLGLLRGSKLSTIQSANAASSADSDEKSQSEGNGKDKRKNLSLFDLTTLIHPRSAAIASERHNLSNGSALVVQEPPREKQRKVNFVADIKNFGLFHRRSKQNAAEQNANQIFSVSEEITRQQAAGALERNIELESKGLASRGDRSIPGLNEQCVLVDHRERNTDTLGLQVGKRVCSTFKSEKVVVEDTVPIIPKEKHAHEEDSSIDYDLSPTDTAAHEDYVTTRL

[5] = biological target: T5, Corticotropin-releasing factor receptor 2/Corticotropin-releasing factor-binding protein (Homo sapiens, UniProt P24387+Q13324); assay: activators of CRF receptor 2 with binding protein – uHTS hits, confirmation (AID 602473); assay type: functional; conditions: read-out: EC50_Mean
T5 sequence (Q13324 whole entry): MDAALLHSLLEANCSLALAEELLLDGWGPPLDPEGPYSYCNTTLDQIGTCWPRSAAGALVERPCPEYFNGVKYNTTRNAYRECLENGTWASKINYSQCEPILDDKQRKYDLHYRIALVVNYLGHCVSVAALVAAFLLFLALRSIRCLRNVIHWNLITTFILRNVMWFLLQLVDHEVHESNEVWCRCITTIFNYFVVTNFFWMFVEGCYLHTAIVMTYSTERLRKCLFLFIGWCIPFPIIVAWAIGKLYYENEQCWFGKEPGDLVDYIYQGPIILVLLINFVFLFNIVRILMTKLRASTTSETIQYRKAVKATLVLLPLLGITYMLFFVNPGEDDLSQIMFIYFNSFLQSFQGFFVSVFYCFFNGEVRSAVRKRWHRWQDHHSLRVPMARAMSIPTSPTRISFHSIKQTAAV
T5 sequence (P24387 whole entry): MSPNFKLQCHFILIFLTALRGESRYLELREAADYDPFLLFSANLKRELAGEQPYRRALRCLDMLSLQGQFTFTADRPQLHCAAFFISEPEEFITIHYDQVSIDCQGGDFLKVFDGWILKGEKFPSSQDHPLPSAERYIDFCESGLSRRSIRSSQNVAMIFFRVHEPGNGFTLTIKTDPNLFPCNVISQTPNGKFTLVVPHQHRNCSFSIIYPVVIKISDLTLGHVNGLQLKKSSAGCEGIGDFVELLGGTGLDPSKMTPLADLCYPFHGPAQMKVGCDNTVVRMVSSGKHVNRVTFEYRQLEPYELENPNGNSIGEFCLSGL

[6] = biological target: Glyceraldehyde-3-phosphate dehydrogenase (Homo sapiens, UniProt P04406)
Chain of Glyceraldehyde-3-phosphate dehydrogenase (P04406 whole entry): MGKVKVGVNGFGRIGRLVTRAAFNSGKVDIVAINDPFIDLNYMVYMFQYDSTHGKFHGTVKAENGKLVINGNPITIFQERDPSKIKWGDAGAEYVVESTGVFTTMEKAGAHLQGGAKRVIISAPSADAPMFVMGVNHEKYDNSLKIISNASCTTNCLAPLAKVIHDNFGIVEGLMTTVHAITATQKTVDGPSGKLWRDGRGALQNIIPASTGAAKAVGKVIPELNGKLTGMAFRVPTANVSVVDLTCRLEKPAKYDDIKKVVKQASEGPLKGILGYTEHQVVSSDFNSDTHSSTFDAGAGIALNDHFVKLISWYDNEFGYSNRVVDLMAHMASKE

Aminopeptidase N = biological target: T6, Aminopeptidase N (Plasmodium falciparum FcB1/Columbia, UniProt O96935); assay: P. falciparum M1AAP inhibitors, biochemical, fluorogenic H-Leu-NHMec substrate, 1536-well (AID 1445); design: species or system Plasmodium falciparum 3D7, 3D7
T6 sequence (O96935 whole entry): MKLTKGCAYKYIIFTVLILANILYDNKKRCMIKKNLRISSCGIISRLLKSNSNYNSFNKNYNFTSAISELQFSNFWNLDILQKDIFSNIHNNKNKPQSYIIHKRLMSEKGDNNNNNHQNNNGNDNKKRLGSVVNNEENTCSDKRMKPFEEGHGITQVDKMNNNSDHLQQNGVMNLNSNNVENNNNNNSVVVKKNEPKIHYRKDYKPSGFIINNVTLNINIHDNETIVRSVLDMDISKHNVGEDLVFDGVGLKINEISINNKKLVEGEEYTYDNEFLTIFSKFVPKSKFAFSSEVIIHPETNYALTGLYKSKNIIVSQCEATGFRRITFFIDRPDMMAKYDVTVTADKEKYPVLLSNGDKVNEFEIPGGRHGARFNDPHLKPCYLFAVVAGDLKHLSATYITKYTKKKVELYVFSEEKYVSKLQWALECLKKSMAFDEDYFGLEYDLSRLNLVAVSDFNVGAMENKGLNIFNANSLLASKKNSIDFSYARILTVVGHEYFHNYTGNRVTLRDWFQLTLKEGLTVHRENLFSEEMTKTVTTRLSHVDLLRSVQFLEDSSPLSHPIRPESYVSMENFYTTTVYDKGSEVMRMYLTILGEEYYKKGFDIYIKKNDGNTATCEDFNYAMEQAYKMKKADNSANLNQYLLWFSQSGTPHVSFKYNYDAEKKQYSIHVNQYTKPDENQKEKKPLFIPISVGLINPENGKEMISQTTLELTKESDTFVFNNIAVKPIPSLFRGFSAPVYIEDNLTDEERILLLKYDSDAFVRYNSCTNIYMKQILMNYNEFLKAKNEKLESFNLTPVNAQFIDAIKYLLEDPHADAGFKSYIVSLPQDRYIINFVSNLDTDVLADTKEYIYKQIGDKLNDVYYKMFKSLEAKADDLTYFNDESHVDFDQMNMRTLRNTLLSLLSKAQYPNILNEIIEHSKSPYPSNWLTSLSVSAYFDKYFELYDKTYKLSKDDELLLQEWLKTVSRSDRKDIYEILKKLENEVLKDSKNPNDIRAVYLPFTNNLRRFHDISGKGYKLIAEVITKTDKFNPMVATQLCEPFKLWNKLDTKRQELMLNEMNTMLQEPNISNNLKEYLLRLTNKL

Chain of Cytochrome P450 2D6 (P10635 whole entry): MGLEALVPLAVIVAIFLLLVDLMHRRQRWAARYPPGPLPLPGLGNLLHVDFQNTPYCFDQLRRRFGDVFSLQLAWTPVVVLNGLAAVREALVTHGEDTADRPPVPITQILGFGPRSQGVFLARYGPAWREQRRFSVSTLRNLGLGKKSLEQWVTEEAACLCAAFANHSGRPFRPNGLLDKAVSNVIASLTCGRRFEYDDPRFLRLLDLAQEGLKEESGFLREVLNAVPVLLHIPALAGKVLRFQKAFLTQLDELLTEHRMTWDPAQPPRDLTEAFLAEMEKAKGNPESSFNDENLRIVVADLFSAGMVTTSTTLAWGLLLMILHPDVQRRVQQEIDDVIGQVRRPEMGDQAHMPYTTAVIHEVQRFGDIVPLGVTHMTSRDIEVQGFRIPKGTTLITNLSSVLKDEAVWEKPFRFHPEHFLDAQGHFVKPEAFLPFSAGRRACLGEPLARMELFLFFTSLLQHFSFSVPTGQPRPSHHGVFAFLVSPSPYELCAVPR

SMILES: Cc1ccc(C(=O)[C@@H]2[C@@H]3[C@@H](C(=O)[C@@H]4OC[C@H]3O4)[C@@H]3C=Cc4ccccc4N23)cc1
AC50 (Cytochrome P450 2D6): 20 µM (inconclusive)

SMILES: CCCCN(C)C(=O)c1cc2cc3ccc(OC)cc3nc2s1
EC50 [1]: 0.22 µM (active) | EC50 (HT-1080): > 50 µM (not active)

SMILES: COc1ccc2cc3c(N)nn(C(=O)Cc4ccc(Cl)cc4)c3nc2c1
IC50 (Estrogen receptor): 24.8 µM (active)

SMILES: Cc1ccc(NC(=O)CSc2nc(O)c3c(n2)CCC3)cc1C
IC50 (Procathepsin L): > 59.6 µM (not active) | IC50 (Aspartyl aminopeptidase): > 73.5 µM (not active) | IC50 (Leucine aminopeptidase): 5.9 µM (active)

SMILES: CCOC(=O)c1c(N)sn(-c2ccccc2C)c1=S
IC50 [2]: 45.6 µM (active)

SMILES: COCCn1c(C)cc(C(=O)CSc2ccc(NC(C)=O)cc2)c1C
EC50 [5]: > 53 µM (inactive) | IC50 [6]: > 100 µM (not active) | EC50 [1]: 3.66 µM (active) | EC50 (HT-1080): > 50 µM (not active)

SMILES: COc1cccc(CNC(=O)CCC2CCCN(Cc3cc(Cl)ccc3O)C2)c1 (configuration not stated)
EC50 [4]: 2.11 µM (active)

SMILES: O=S(=O)(NCc1csc(-c2cccnc2)n1)c1cccs1
IC50 (Estrogen receptor): 18 µM (active)

Results, then the compound that gave them:

EC50 [3]: 18.9 µM (active)
SMILES: COC(=O)c1ccc(/C=C/C(=O)OCC(=O)Nc2sccc2C(N)=O)cc1

IC50 (Procathepsin L): > 59.6 µM (not active) | IC50 (Aspartyl aminopeptidase): > 73.5 µM (not active) | IC50 (Leucine aminopeptidase): 4.06 µM (active)
SMILES: C=CCn1c(SCC(=O)Nc2cccc3ccccc23)nc(=O)c(CC)c1O

EC50 [4]: 0.531 µM (active)
SMILES: CC12CCC(C/C1=N/OC(=O)c1cccc([N+](=O)[O-])c1)C2(C)C (configuration not stated)

IC50 (Procathepsin L): > 59.6 µM (not active) | IC50 (Aspartyl aminopeptidase): > 73.5 µM (not active) | IC50 (Aminopeptidase N): 8.54 µM (active)
SMILES: O=C(Nn1c(C2CCC2)nc2ccccc2c1=O)c1cccs1
